Source: PMC9997068, “Impact of Gastric pH Variations on the Release of Amorphous Solid Dispersion Formulations Containing a Weakly Basic Drug and Enteric Polymers” (Molecular Pharmaceutics, 2023)

Assay: Drug crystallization in media of different pH (PXRD)
Format: physicochemical
Procedure: PXRD was used to confirm the amorphous state of freshly prepared DLM ASDs and to detect drug crystallization in solution. […] Crystallization of the DLM salt was evaluated at predetermined time points. Drug crystallization in ASDs upon acidic incubation was conducted at the same drug concentration as in the dissolution testing: 20 mg of ASD powder was added to 50 mL of acidic solutions at pH 1.6, 3.0, or 5.0 and kept stirring at 300 rpm, 37 °C for 1 h.
Undissolved particles were collected by vacuum filtration and analyzed using a Rigaku Smartlab diffractometer (Rigaku Americas, The Woodlands, TX) equipped with a Cu–Kα radiation source and a D/tex ultradetector. Diffractograms were acquired with a scanning speed of 4°/min (4–40° 2θ) and 0.02° step size. The voltage and current were 40 kV and 44 mA, respectively.

Structure (SMILES): C[C@]1(COc2ccc(N3CCC(Oc4ccc(OC(F)(F)F)cc4)CC3)cc2)Cn2cc([N+](=O)[O-])nc2O1.O=S(=O)(O)CCS(=O)(=O)O [DLM edisylate]
- pHmax (crystallization to the free base observed at all pHs investigated): < 1.6
- immersion time at which evidence of crystalline free base was seen (neat amorphous salt in suspension, 37 °C): 5 min
- crystallization of neat amorphous salt (pH 1.6 and 3.0): rapid
- rate of crystallization of neat amorphous salt (pH 5.0 and 6.5): much reduced
